Earlier results in US11980624B2, “Methods for administering compositions comprising hydroxytyrosol and boswellic acid” (Nutramax Laboratories, Inc., priority 2016, dated 2024).

Details: single oral 2.5 mg/kg dose, human subjects

## OCCc1ccc(O)c(O)c1 [hydroxytyrosol, 4-(2-Hydroxyethyl)-1,2-benzenediol]
  peak plasma concentration: 1.11 ± 0.20 µmol/L
